Source: patent publication US10626115B2, “Fused pyrimidinone and triazinone derivatives containing bridged nitrogen, their process of preparation and their therapeutic uses as antifungal and/or antiparasitic agents” (UNIVERSITE DE NANTES, priority 2015, dated 2020)
Values after ≈ are worked out from the molar mass of the structure shown. Where two headings read alike, the source gives them in different places.

How the values were obtained:
[1] = tested on: A. fumigatus itraconazole-resistant strain ASFU20; assay: Antifungal susceptibility, spectrofluorimetric microdilution, ASFU20; type: cell-based, Aspergillus fumigatus; details: concentration inhibiting 80% of control fluorescence
Description: (§1) Eleven strains of A. fumigatus with various itraconazole susceptibility were used: • Five susceptible strains: ASFU7, ASFU35A, ASFU38A, ASFU76 and ASFU78. • Six itraconazole-resistant strains: ASFU77 (erg11 mutation), ASFU13, ASFU17, ASFU19, ASFU20, ASFU23.
(§2) Antifungal susceptibility was evaluated with a spectrofluorimetric microdilution method. MIC was the concentration that was able to inhibit 80% of fluorescence measured in the control wells.

[2] = tested on: Aspergillus fumigatus (ASFU7) spores; assay: Murine invasive aspergillosis; type: in vivo; details: neutropenic Swiss mice, ASFU7 spores i.v., 10 mg/kg per os once a day for 5 days
Description: (§3) Transiently neutropenic female Swiss mice were used for experiments on systemic candidiasis and invasive aspergillosis.
Mice were inoculated intravenously with Aspergillus fumigatus (ASFU7) spores.
Treatment was administrated once a day (10 mg/kg per os) for 5 days. […] Fungal burden of the kidney was evaluated in dead animals during the experimentation or in animals sacrificed at the end of the experimentation.

[3] = tested on: A. fumigatus susceptible strain ASFU76; assay: Antifungal susceptibility, spectrofluorimetric microdilution, ASFU76; type: cell-based, Aspergillus fumigatus
Description: as §1, §2

[4] = tested on: A. fumigatus itraconazole-resistant strain ASFU13; assay: Antifungal susceptibility, spectrofluorimetric microdilution, ASFU13; type: cell-based, Aspergillus fumigatus; details: concentration inhibiting 80% of control fluorescence
Description: as §1, §2

[5] = tested on: promastigote stage of a Leishmania mexicana strain; assay: Anti-Trypanosomatidae activity, promastigote stage, spectrofluorimetric microdilution; type: cell-based; details: for IC50: promastigote stage, 50% of control growth, read-out: L. mexicana (IC50 μM)
Description: Compounds were evaluated on the promastigote stage of a Leishmania mexicana strain using a spectrofluorimetric microdilution method. Inhibitory concentration 50 (IC50) was the concentration that inhibited 50% of the control growth.

[6] = tested on: A. fumigatus itraconazole-resistant strain ASFU19; assay: Antifungal susceptibility, spectrofluorimetric microdilution, ASFU19; type: cell-based, Aspergillus fumigatus; details: concentration inhibiting 80% of control fluorescence
Description: as §1, §2

[7] = tested on: A. fumigatus susceptible strain ASFU78; assay: Antifungal susceptibility, spectrofluorimetric microdilution, ASFU78; type: cell-based, Aspergillus fumigatus
Description: as §1, §2

[8] = tested on: A. fumigatus susceptible strain ASFU7; assay: Antifungal susceptibility, spectrofluorimetric microdilution, ASFU7; type: cell-based, Aspergillus fumigatus
Description: as §1, §2

[9] = tested on: A. fumigatus itraconazole-resistant strain ASFU23; assay: Antifungal susceptibility, spectrofluorimetric microdilution, ASFU23; type: cell-based, Aspergillus fumigatus; details: concentration inhibiting 80% of control fluorescence
Description: as §1, §2

[10] = tested on: A. fumigatus itraconazole-resistant strain ASFU77 (erg11 mutation); assay: Antifungal susceptibility, spectrofluorimetric microdilution, ASFU77; type: cell-based, Aspergillus fumigatus
Description: as §1, §2

[11] = tested on: A. fumigatus susceptible strain ASFU38A; assay: Antifungal susceptibility, spectrofluorimetric microdilution, ASFU38A; type: cell-based, Aspergillus fumigatus
Description: as §1, §2

[12] = tested on: A. fumigatus susceptible strain ASFU35A; assay: Antifungal susceptibility, spectrofluorimetric microdilution, ASFU35A; type: cell-based, Aspergillus fumigatus
Description: as §1, §2

[13] = tested on: A. fumigatus itraconazole-resistant strain ASFU17; assay: Antifungal susceptibility, spectrofluorimetric microdilution, ASFU17; type: cell-based, Aspergillus fumigatus; details: concentration inhibiting 80% of control fluorescence
Description: as §1, §2

[14] = tested on: fluconazole-resistant C. glabrata (CAGL2); assay: microbe, parasite or virus in culture; type: cell-based; details: Nakaseomyces glabratus, read-out: MIC values CAGL2
Description: (§4) Eight strains of Candida spp. with various azoles-susceptibilities were used: • One fluconazole-susceptible C. albicans strain: CAAL93 • Two fluconazole-resistant C. albicans strains: CAAL111 (efflux pump) and CAAL117 (erg11 mutations+voriconazole-resistant) • five fluconazole-resistant Candida non albicans strains: C. krusei (CAKR7, CAKR8), C. glabrata (CAGL2), C. parapsilosis s.l. (CAPA1, CAPA2).
(§5) Antifungal susceptibility was evaluated with a spectrofluorimetric microdilution method.

[15] = tested on: fluconazole-resistant C. krusei (CAKR8); assay: microbe, parasite or virus in culture; type: cell-based; details: Pichia kudriavzevii, read-out: MIC values CAKR8
Description: as §4, §5

[16] = tested on: fluconazole-resistant C. krusei (CAKR7); assay: microbe, parasite or virus in culture; type: cell-based; details: Pichia kudriavzevii, read-out: MIC values CAKR7
Description: as §4, §5

[17] = tested on: fluconazole-resistant C. albicans strain CAAL111 (efflux pump); assay: microbe, parasite or virus in culture; type: cell-based; details: Candida albicans, read-out: MIC values CAAL111
Description: as §4, §5

[18] = tested on: fluconazole-resistant C. parapsilosis s.l. (CAPA1); assay: microbe, parasite or virus in culture; type: cell-based; details: Lodderomyces parapsilosis, read-out: MIC values CAPA1
Description: as §4, §5

[19] = tested on: fluconazole-resistant C. parapsilosis s.l. (CAPA2); assay: microbe, parasite or virus in culture; type: cell-based; details: Lodderomyces parapsilosis, read-out: MIC values CAPA2
Description: as §4, §5

[20] = tested on: fluconazole-susceptible C. albicans strain: CAAL93; assay: Antifungal susceptibility, spectrofluorimetric microdilution, CAAL93; type: cell-based; details: Candida albicans, read-out: MIC values CAAL93
Description: as §4, §5

[21] = Cytotoxicity on HeLa cells; type: cell-based, Human; details: human, 50% inhibition of control fluorescence
Description: Hela Human cell line was used in view to evaluate cytotoxicity. It was evaluated with a spectrofluorimetric microdilution method. IC50 was the concentration that was able to inhibit 50% of fluorescence measured in the control wells.

[22] = tested on: Candida albicans strain (CAAL93); assay: Murine systemic candidiasis; type: in vivo; details: neutropenic Swiss mice, CAAL93 i.v., 10 mg/kg per os once a day for 5 days
Description: as §3
Mice were inoculated intravenously with a Candida albicans strain (CAAL93). Treatment was administrated once a day (10 mg/kg per os) for 5 days. […] Fungal burden of the kidney was evaluated in dead animals during the experimentation or in animals sacrificed at the end of the experimentation.

[23] = tested on: fluconazole-resistant C. albicans strain CAAL117 (erg11 mutations+voriconazole-resistant); assay: microbe, parasite or virus in culture; type: cell-based; details: Candida albicans, read-out: MIC values CAAL117
Description: as §4, §5

[24] = concentration inhibiting 80% of control fluorescence

CCC(C)n1ncn(-c2ccc(N3CCN(c4ccc(OCC5COC(Cn6cncn6)(c6ccc(Cl)cc6Cl)O5)cc4)CC3)cc2)c1=O (centres unmarked) [ITRA, Itraconazole, reference compound]
MIC values ASFU20 [1]: >7 µg/mL | survival ([2]; 14 days, p<0.01): did survive significantly longer | fungal burden of the kidney ([2]; p<0.05): significantly reduced | MIC values ASFU76 [3, 24]: 0.50 ± 0.24 µg/mL (≈ 0.709 µM) | MIC values ASFU13 [4]: >70 µg/mL | IC50 [5]: 2.5 ± 0.7 µM | MIC values ASFU19 [6]: >7 µg/mL | MIC values ASFU78 [7, 24]: 0.31 µg/mL (≈ 0.439 µM) | MIC values ASFU7 [8, 24]: 0.42 ± 0.04 µg/mL (≈ 0.595 µM) | MIC values ASFU23 [9]: >7 µg/mL | MIC values ASFU77 [10, 24]: >100 µg/mL | MIC values ASFU38A [11, 24]: 0.52 µg/mL (≈ 0.737 µM) | MIC values ASFU35A [12, 24]: 0.24 µg/mL (≈ 0.34 µM) | MIC values ASFU17 [13]: >7 µg/mL

C[C@@H](n1ccc2nc(-c3ccccc3)cn2c1=O)[C@](O)(Cn1cncn1)c1ccc(F)cc1F [Compound 29, 6-[(1R,2R)-2-(2,4-Difluorophenyl)-2-hydroxy-1-methyl-3-(1H-1,2,4-triazol-1-yl)propyl]-2-phenylimidazo[1,2-c]pyrimidin-5-one]
MIC [14]: 0.15 ± 0.01 µg/mL (≈ 0.324 µM) | MIC [15]: 0.07 ± 0.02 µg/mL (≈ 0.151 µM) | MIC [16]: 1.28 ± 0.33 µg/mL (≈ 2.77 µM) | MIC [17]: 0.005 ± 0.002 µg/mL (≈ 0.0108 µM) | MIC [18]: 0.009 ± 0.003 µg/mL (≈ 0.0195 µM) | MIC [19]: 0.007 ± 0.004 µg/mL (≈ 0.0151 µM) | MIC ([3]; Aspergillus fumigatus, read-out: MIC values ASFU76): 6.66 ± 0.53 µg/mL (≈ 14.4 µM) | effectiveness against the promastigote stage of L. Mexicana, in words [5]: effective | IC50 ([5]; Leishmania mexicana): 2.8 ± 0.3 µM | MIC [20]: < 0.001 µg/mL | MIC ([7]; Aspergillus fumigatus, read-out: MIC values ASFU78): 5.93 ± 0.72 µg/mL (≈ 12.8 µM) | MIC ([8]; Aspergillus fumigatus, read-out: MIC values ASFU7): 2.49 ± 0.13 µg/mL (≈ 5.38 µM) | MIC ([10]; Aspergillus fumigatus, read-out: MIC values ASFU77): 28.2 ± 21.9 µg/mL (≈ 61 µM) | MIC ([11]; Aspergillus fumigatus, read-out: MIC values ASFU38A): 6.86 ± 1 µg/mL (≈ 14.8 µM) | MIC ([12]; Aspergillus fumigatus, read-out: MIC values ASFU35A): 6.36 ± 1.42 µg/mL (≈ 13.8 µM) | IC50 [21]: 25000 nM | survival compared with the non-treated group ([22]; 28 days (compound 51, 14 days), p<0.05): significant longer survival | activity on fungal burden of the kidney compared to FLC ([22]; p<0.05): significantly higher when compared to FLC | fungal burden of the kidney ([22]; p<0.05 (compound 51 p<0.001)): significantly decreased

OC(Cn1cncn1)(Cn1cncn1)c1ccc(F)cc1F [FLC, fluconazole, reference compound]
MIC [14]: 10.1 ± 0.61 µg/mL (≈ 33 µM) | MIC [15]: > 10 µg/mL | MIC [23]: > 3 µg/mL | MIC [16]: > 3 µg/mL | MIC [17]: > 30 µg/mL | MIC [18]: > 30 µg/mL | MIC [19]: > 30 µg/mL | MIC ([20]; concentration inhibiting 50% of control fluorescence): 0.036 ± 0.02 µg/mL (≈ 0.118 µM)
